Measured values from publication PMC8766756, “Insights on Cancer Cell Inhibition, Subcellular Activities, and Kinase Profile of Phenylacetamides Pending 1H-Imidazol-5-One Variants” (Frontiers in Pharmacology, 2022).
Where “and” joins values, the source holds several entries; their conditions need not be identical. Equal entries are not always repeated.

What was measured:
Assay in all cases: PamChip tyrosine kinase microarray
Assay type in all cases: biochemical
Settings in all cases: 0.1 µM, HL60 lysate
CTK (P42679) = biological target: T1, CTK (P42679) (Homo sapiens, UniProt P42679)
T1 construct: purchased PamGene (PamChip PTK array, Upstream Kinase Analysis)
T1 sequence (P42679 1-507): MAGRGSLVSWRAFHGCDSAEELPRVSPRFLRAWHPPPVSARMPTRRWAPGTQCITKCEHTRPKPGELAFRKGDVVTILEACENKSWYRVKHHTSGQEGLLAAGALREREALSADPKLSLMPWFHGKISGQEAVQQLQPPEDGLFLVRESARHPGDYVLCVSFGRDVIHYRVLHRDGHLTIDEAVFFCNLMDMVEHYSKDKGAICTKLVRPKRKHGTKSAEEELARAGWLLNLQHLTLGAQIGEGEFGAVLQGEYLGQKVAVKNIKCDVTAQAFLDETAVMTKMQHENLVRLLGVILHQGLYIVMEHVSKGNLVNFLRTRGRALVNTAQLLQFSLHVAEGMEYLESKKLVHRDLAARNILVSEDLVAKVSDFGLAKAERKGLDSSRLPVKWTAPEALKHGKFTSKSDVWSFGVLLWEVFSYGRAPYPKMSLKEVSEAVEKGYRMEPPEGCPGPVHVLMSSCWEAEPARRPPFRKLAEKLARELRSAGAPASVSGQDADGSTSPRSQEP
In short: (§1)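 HL60 (AML) cell lysate was spiked with compound at 0.001, 0.01, 0.1, 1, 10 and 50 µM, or 2% v/v DMSO as control, then profiled in technical replicates on a tyrosine kinase peptide array of 196 phosphosites. Kinase activity was inferred from peptide-set changes using an upstream kinase tool.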

FLT4 (P35916) = biological target: T2, FLT4 (P35916) (Homo sapiens, UniProt P35916)
T2 construct: purchased PamGene (PamChip PTK array, Upstream Kinase Analysis)
In short: as §1

Fer (P16591) = biological target: T3, Fer (P16591) (Homo sapiens, UniProt P16591)
T3 construct: purchased PamGene (PamChip PTK array, Upstream Kinase Analysis)
In short: as §1

Mer (Q12866) = biological target: T4, Mer (Q12866) (Homo sapiens, UniProt Q12866)
T4 construct: purchased PamGene (PamChip PTK array, Upstream Kinase Analysis)
T4 sequence (Q12866 21-999): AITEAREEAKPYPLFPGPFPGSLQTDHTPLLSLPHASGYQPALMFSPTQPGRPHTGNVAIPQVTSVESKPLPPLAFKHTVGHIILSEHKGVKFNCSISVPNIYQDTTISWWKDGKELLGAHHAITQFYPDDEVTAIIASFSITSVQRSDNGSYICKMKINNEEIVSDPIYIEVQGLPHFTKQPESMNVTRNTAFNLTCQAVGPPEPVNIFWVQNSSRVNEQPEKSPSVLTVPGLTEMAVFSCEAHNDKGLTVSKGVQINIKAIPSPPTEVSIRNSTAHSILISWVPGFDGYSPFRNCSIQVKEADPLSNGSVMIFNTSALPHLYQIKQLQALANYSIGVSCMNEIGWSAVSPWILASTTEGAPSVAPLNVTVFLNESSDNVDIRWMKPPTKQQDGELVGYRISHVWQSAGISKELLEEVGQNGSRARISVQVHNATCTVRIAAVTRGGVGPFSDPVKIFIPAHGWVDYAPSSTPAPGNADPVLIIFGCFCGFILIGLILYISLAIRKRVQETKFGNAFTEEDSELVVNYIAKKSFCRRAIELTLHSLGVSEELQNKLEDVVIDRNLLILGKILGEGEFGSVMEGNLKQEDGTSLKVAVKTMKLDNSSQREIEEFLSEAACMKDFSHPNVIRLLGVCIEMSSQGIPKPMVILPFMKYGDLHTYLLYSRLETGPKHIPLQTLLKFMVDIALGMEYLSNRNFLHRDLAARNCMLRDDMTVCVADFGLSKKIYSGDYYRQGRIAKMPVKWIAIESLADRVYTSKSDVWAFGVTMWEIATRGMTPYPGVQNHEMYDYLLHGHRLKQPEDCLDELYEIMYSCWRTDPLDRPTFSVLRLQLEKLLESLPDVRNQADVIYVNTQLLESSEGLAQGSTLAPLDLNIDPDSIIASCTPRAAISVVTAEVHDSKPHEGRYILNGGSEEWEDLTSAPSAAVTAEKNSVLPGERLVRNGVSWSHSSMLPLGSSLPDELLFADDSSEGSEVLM
In short: as §1

Ron (Q04912) = biological target: T5, Ron (Q04912) (Homo sapiens, UniProt Q04912)
T5 construct: purchased PamGene (PamChip PTK array, Upstream Kinase Analysis)
In short: as §1

T5 sequence (Q04912 25-1400): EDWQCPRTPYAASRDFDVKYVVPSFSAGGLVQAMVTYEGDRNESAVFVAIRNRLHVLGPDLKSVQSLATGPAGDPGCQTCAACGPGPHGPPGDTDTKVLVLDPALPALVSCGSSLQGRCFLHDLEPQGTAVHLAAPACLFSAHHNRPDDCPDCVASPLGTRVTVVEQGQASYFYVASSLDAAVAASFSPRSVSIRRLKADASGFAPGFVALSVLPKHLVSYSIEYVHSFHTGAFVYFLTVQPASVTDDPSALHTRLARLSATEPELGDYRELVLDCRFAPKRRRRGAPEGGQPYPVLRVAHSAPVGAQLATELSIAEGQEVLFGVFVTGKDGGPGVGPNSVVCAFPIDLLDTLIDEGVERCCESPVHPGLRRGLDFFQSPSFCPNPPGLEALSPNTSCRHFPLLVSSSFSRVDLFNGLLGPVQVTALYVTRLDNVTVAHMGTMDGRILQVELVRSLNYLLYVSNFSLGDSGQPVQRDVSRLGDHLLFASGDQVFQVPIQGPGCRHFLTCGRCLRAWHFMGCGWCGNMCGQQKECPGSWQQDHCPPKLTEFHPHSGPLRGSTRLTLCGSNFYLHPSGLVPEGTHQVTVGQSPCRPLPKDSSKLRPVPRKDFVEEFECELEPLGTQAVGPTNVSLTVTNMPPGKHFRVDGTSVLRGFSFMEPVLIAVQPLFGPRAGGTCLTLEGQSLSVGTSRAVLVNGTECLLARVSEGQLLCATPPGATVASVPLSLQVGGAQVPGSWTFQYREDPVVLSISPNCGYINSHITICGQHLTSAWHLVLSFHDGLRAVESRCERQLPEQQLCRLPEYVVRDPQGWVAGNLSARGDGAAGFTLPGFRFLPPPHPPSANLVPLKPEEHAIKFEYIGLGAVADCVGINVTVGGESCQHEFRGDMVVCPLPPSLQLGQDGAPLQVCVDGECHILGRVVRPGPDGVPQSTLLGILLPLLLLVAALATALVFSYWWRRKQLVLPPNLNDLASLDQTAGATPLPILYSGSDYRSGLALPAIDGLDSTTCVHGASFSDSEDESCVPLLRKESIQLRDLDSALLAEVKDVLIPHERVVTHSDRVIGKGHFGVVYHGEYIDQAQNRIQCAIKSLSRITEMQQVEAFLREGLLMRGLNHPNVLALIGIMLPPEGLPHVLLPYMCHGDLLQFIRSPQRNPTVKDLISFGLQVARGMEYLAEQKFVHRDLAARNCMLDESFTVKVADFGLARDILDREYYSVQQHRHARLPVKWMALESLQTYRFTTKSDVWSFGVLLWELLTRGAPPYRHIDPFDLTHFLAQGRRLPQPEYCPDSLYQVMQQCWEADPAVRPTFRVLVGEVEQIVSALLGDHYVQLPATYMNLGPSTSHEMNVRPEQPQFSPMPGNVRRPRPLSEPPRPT
T3 sequence (P16591 whole entry): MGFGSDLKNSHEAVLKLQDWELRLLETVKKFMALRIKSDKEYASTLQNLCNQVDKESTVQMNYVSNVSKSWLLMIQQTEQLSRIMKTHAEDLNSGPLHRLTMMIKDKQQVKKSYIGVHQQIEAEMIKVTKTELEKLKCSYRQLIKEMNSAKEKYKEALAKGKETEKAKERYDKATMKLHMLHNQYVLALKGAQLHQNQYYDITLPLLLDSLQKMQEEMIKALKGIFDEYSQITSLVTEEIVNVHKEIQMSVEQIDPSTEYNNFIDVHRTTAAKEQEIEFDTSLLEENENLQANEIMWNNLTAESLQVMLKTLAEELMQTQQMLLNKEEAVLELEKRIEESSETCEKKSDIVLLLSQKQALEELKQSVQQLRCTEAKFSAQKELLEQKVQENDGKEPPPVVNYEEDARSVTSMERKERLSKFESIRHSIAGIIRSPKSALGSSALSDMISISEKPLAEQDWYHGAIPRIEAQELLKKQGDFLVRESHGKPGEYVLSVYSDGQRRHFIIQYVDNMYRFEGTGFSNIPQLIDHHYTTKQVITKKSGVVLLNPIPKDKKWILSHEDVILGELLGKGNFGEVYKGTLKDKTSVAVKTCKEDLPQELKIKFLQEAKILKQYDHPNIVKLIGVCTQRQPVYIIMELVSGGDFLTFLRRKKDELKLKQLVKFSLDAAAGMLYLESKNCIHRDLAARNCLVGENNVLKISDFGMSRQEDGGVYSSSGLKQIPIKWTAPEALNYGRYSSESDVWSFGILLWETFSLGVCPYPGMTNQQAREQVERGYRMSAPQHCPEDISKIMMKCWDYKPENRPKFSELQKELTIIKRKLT
T2 sequence (P35916 25-1363): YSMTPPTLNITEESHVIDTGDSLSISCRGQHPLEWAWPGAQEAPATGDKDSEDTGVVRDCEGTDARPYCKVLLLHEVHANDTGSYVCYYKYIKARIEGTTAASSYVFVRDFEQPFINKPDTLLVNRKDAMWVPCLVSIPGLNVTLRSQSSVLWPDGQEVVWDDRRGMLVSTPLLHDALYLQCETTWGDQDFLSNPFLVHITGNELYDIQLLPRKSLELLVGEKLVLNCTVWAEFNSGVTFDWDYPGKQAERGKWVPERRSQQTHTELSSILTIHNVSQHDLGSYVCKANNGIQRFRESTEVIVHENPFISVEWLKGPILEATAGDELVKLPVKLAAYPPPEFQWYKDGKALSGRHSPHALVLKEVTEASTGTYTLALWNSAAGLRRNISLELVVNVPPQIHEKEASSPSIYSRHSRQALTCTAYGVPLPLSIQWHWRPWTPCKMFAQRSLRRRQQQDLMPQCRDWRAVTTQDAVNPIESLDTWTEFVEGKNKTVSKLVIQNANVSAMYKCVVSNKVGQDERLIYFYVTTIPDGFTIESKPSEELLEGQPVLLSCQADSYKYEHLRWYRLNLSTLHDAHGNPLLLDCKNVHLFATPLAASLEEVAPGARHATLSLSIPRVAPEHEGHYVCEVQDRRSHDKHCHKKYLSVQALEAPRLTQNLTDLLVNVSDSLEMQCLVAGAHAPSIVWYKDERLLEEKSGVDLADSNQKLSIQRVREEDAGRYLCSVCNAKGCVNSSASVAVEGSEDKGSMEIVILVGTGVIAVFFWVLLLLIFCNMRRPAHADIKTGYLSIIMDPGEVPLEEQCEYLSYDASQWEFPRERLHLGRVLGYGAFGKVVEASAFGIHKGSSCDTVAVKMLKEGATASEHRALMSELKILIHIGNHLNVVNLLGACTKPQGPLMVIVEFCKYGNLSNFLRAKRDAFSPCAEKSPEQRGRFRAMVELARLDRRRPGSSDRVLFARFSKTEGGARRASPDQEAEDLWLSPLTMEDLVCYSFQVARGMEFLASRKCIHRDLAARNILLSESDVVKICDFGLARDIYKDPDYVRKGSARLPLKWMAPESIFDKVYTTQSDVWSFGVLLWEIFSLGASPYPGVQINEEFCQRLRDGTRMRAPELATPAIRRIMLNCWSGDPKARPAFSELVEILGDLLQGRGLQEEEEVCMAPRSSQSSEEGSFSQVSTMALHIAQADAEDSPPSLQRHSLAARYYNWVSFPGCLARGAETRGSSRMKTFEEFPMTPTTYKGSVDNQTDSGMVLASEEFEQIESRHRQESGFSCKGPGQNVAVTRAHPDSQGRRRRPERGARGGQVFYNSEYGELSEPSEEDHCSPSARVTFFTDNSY

COc1ccc(/C=C2\N=C(C)N(c3ccc(CC(=O)NCc4ccccc4)cc3)C2=O)cc1 [Compound 4c, (Z)-N-Benzyl-2-(4-(4-(4-methoxybenzylidene)-2-methyl-5-oxo-4,5-dihydro-1H-imidazol-1-yl)phenyl)acetamide]
Mean Final score (Kinase score) (CTK (P42679)): 2.298 | Mean Kinase Statistic (CTK (P42679)): -1.147 | Mean Significance Score (CTK (P42679)): 2.048 | Mean Specificity Score (CTK (P42679)): 0.2322 | Mean Significance Score (FLT4 (P35916)): 2.048 | Mean Specificity Score (FLT4 (P35916)): 1.142 | Mean Final score (Kinase score) (FLT4 (P35916); listed as KIM-161): 3.15 and 3.152 | Mean Final score (Kinase score) (Fer (P16591)): 2.491 | Mean Kinase Statistic (Fer (P16591)): -1.259 | Mean Significance Score (Fer (P16591)): 2.048 | Mean Specificity Score (Fer (P16591)): 0.455 | Mean Final score (Kinase score) (Mer (Q12866)): 2.544 | Mean Kinase Statistic (Mer (Q12866)): -1.224 | Mean Significance Score (Mer (Q12866)): 2.048 | Mean Specificity Score (Mer (Q12866)): 0.533 | Mean Significance Score (Ron (Q04912)): 2.048 | Mean Specificity Score (Ron (Q04912)): 0.9095 | Mean Final score (Kinase score) (Ron (Q04912); listed as KIM-161): 2.96 and 2.957
